Experimental data as given in PubChem BioAssay AID1963446 (Molecular Pharmacology Branch, DTP, NCI, 2024).
“And” between values parts separate entries of the source, which are not always exact repeats. Equal values may be shown once.

Tested on: 993429-296-R-J1-PDC complex spheroid growth, percent test/control
Assay: Anticancer human tumor 993429-296-R-J1-PDC patient-derived uterine sarcoma cell line growth inhibition [Asc]
Details: for viability, T/C: stronger effect = lower value
In short: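 Tumor cells were grown as complex spheroids with human endothelial cells (HUVEC) and human mesenchymal stem cells as stroma. Agents were tested alone and in combination, in half-log steps down from the clinical Cmax, or from 10 microM where Cmax was unknown.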
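Note: spheroids exposed to compounds for seven days.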

Structure (SMILES): C=C(F)C(=O)N1CCN(c2nc(OCC3CCCN3C)nc3c2CCN(c2cccc4cccc(Cl)c24)C3)CC1CC#N (centres undefined) + CCN1C(C(=O)NC23CCC(C(=O)O)(CC2)CC3)C(c2cccc(Cl)c2F)C2(C(=O)Nc3cc(Cl)ccc32)C12CCCCC2
- IC50 (curve of first compound, second compound 0.03 µM): 1100 nM
- IC50 (curve of first compound, second compound 0.0949 µM): 1200 nM
- IC50 (curve of first compound, second compound 0.3 µM): 1010 nM
- IC50 (curve of first compound, second compound 0.949 µM): 1300 nM
- IC50 (curve of first compound, second compound 3 µM): 1580 nM
- viability, T/C (second compound 0.03 µM, first compound 0.0316 µM): 97.6%
- viability, T/C (second compound 0.03 µM, first compound 0.1 µM): 95.3%
- viability, T/C (second compound 0.03 µM, first compound 0.316 µM): 103%
- viability, T/C (second compound 0.03 µM, first compound 1 µM): 54%
- viability, T/C (second compound 0.03 µM, first compound 3.16 µM): 7.9%
- viability, T/C (second compound 0.03 µM, first compound 10 µM): 0.1%
- viability, T/C (second compound 0.0949 µM, first compound 0.0316 µM): 98.4%
- viability, T/C (second compound 0.0949 µM, first compound 0.1 µM): 98.2%
- viability, T/C (second compound 0.0949 µM, first compound 0.316 µM): 85.2%
- viability, T/C (second compound 0.0949 µM, first compound 1 µM): 59.8%
- viability, T/C (second compound 0.0949 µM, first compound 3.16 µM): 8.82%
- viability, T/C (second compound 0.0949 µM, first compound 10 µM): 0.11%
- viability, T/C (second compound 0.3 µM, first compound 0.0316 µM): 89.2%
- viability, T/C (second compound 0.3 µM, first compound 0.1 µM): 104%
- viability, T/C (second compound 0.3 µM, first compound 0.316 µM): 105%
- viability, T/C (second compound 0.3 µM, first compound 1 µM): 50.5%
- viability, T/C (second compound 0.3 µM, first compound 3.16 µM): 10.4%
- viability, T/C (second compound 0.3 µM, first compound 10 µM): 0.1%
- viability, T/C (second compound 0.949 µM, first compound 0.0316 µM): 93%
- viability, T/C (second compound 0.949 µM, first compound 0.1 µM): 88.3%
- viability, T/C (second compound 0.949 µM, first compound 0.316 µM): 78.2%
- viability, T/C (second compound 0.949 µM, first compound 1 µM): 63.9%
- viability, T/C (second compound 0.949 µM, first compound 3.16 µM): 5.95%
- viability, T/C (second compound 0.949 µM, first compound 10 µM): 0.11%
- viability, T/C (second compound 3 µM, first compound 0.0316 µM): 107%
- viability, T/C (second compound 3 µM, first compound 0.1 µM): 86.2%
- viability, T/C (second compound 3 µM, first compound 0.316 µM): 81.7%
- viability, T/C (second compound 3 µM, first compound 1 µM): 78.1%
- viability, T/C (second compound 3 µM, first compound 3.16 µM): 7.46%
- viability, T/C (second compound 3 µM, first compound 10 µM): 0.15%

Structure (SMILES): O=C(c1ccc(F)c(F)c1Nc1ccc(I)cc1F)N1CC(O)([C@@H]2CCCCN2)C1
- viability, T/C (compound 0.00316 µM): 94.3% and 75.1% and 94.5%
- viability, T/C (compound 0.01 µM): 86% and 69.7% and 83.4%
- viability, T/C (compound 0.0316 µM): 62.6% and 54.8% and 79.4%
- viability, T/C (compound 0.1 µM): 41% and 34.7% and 70.9%
- viability, T/C (compound 0.316 µM): 14.8% and 10.7% and 39.1%
- viability, T/C (compound 1 µM): 1.26% and 1.77% and 3.59%
- IC50 (curve of compound): 61.4 nM and 42.6 nM and 212 nM

Structure (SMILES): CCN1CCN(Cc2ccc(Nc3ncc(F)c(-c4cc(F)c5nc(C)n(C(C)C)c5c4)n3)nc2)CC1
- viability, T/C (compound 0.00316 µM): 90.1% (2×) and 100%
- viability, T/C (compound 0.01 µM): 86.7% and 111% and 99.3%
- viability, T/C (compound 0.0316 µM): 94.1% and 105% and 92.7%
- viability, T/C (compound 0.1 µM): 85.6% and 98.3% and 93.6%
- viability, T/C (compound 0.316 µM): 98.6% and 119% and 100%
- viability, T/C (compound 1 µM): 88.5% and 94.9% and 86.3%
- IC50 (curve of compound): > 1000 nM
